The text below walks through data of PMC10770490, “Two distinct modes of action of molecular glues in the plant hormone co-receptor COI1-JAZ system” (iScience, 2023).

In data set [1] the target is T1, COI1 (Arabidopsis thaliana, UniProt O04197).
T1 construct: GST (N, cleaved yes); made in house; host or cells: Sf9 insect cells
The data set is described as follows: Differential scanning fluorimetry (DSF) assay, COI1 alone. The class given is binding. The note with it: for shift in the melting point of COI1: COI1 alone, substance titrated. The protocol: (§1) COR/COR-MO/CFA-Ile were dissolved in DMSO, (3R,7S)/(3R,7R)-JA-Ile and cis-OPDA were dissolved in ethanol, JA was dissolved in sterilized water to generate 10 mM stock solutions and diluted with corresponding solvent for preparation of 100 μM and 1 mM stock solutions, respectively. JAZ1/9 peptides were dissolved in sterilized water to generate 10 mM stock solutions and diluted to prepare 100 μM stock solutions. […] DSF experiments were carried out using StepOnePlus Real-Time PCR System (Thermo Fisher Scientific, Inc., MA, US). Protein Thermal Shift Dye (Thermo Fisher Scientific, Inc., MA, US) was used as the reporter dye. […] Samples were heated from 25 °C to 95 °C. The denaturation curve was obtained using Protein Thermal Shift Software (Thermo Fisher Scientific, Inc., MA, US) to afford ΔTm value for each condition. An average ΔTm value of three independent measurements was plotted, and ΔTm dose-response curves were analyzed with nonlinear curve-fitting analysis to evaluate Ka and Kd values using KaleidaGraph software (v4.1.1, Synergy Software).
(§2) The determination of the Kd value was conducted by curve fitting the dose-response ΔTm values. Experiments were performed in triplicate to obtain the mean and S.D. (shown as error bars). Dose-response curves were analyzed with the nonlinear curve-fitting analysis to evaluate apparent Ka and Kd values using KaleidaGraph v4.1.1 software.

The target in data set [2] is T2, COI1-JAZ1 (Arabidopsis thaliana, UniProt O04197+Q9LMA8, DEL221-253).
T2 construct: GST (N, cleaved yes); made in house; host or cells: Sf9 insect cells (COI1-ASK1); JAZ peptide by chemical synthesis
The data set can be described thus: biochemical. The class given is binding. The protocol:
as §1, with “JAZ1/9” for “COR/COR-MO/CFA-Ile were dissolved in DMSO, (3R,7S)/(3R,7R)-JA-Ile and cis-OPDA were dissolved in ethanol, JA was dissolved in sterilized water to generate 10 mM stock solutions and diluted with corresponding solvent for preparation of 100 μM and 1 mM stock solutions, respectively. JAZ1/9”
as §2

Data set [3] addresses T3, GST-COI1/JAZP1 (Arabidopsis thaliana, UniProt O04197+Q9LMA8, DEL221-253).
T3 construct: made in house; host or cells: Sf9 insect cells (GST-COI1/ASK1); JAZ peptide by chemical synthesis
The data set is described as follows: Isothermal titration calorimetry (iTC), GST-COI1/JAZP1. The format is binding. The protocol:
The experiments were performed with iTC 200 Microcalorimeter (MicroCal, Malvern Panalytical, UK) at 25°C. […] The measurements were carried out by 19 × 2 μL successive injections of solutions (initial injection of 0.4 μL), with a 180s spacing time between injections, stirring of 750 rpm, and a reference power of 5 μcal/s. The measured heat changes of the binding reactions were integrated and processed using the standard “one set of sites” model implemented in the Origin (version 7.0) software package to determine the binding stoichiometry (n) and the equilibrium dissociation constant (Kd) and other thermodynamic parameters (ΔG, ΔH, ΔS).

Data set [4] is described as follows: Isomerization under DSF conditions analyzed by UPLC-MS/MS. The class given is physicochemical. As to conditions: DSF heating conditions. The source says: Thus, some amount of (3R, 7S)-JA-Ile still exists under the DSF heating conditions.
Details of data set [5]: method as in PMID 19349968. As to conditions: after 1 h of heating at 95°C ref 12; cited from earlier work.
Data set [6] concerns the target T4, COI1-JAZ9 (Arabidopsis thaliana, UniProt O04197+Q8W4J8). The data set can be described thus: DSF assay, COI1 with JAZ9 degron peptide (JAZP9). The format is binding. On the procedure:
as §1, §2

The target of data set [7] is T5, GST-COI1 (Arabidopsis thaliana, UniProt O04197).
T5 construct: made in house; host or cells: Sf9 insect cells
T5 sequence (O04197 1-592): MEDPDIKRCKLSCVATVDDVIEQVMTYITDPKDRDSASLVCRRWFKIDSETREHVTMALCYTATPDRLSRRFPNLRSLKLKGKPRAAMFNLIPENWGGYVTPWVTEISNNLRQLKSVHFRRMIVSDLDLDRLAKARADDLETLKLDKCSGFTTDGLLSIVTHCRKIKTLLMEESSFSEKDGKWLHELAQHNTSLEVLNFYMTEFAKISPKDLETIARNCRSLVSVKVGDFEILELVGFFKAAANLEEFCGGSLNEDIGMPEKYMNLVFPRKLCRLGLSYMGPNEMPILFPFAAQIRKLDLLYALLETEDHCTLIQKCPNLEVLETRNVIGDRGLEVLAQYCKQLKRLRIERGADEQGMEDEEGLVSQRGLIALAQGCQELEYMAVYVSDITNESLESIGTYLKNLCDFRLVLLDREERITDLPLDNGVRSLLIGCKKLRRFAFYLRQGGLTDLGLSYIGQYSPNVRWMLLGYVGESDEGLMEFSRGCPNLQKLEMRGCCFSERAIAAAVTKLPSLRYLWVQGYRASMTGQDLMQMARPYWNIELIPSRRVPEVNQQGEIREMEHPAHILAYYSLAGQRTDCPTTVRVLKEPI
T5 sequence (Q39255 1-160 partner): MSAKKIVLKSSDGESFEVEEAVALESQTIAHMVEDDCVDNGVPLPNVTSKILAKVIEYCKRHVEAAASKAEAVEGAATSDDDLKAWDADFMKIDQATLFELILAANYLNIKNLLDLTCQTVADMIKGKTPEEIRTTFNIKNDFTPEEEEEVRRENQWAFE
The data set can be described thus: Isothermal titration calorimetry (iTC), GST-COI1 only. The class given is binding. The protocol: (§3) The experiments were performed with iTC 200 Microcalorimeter (MicroCal, Malvern Panalytical, UK) at 25°C. GST-COI1 concentration was determined by BCA assay (Thermo Fisher Scientific, Inc., MA, US) using NanoPhotometerN60 (IMPLEN GmbH, Germany). […] The measurements were carried out by 19 × 2 μL successive injections of solutions (initial injection of 0.4 μL), with a 180s spacing time between injections, stirring of 750 rpm, and a reference power of 5 μcal/s. The measured heat changes of the binding reactions were integrated and processed using the standard “one set of sites” model implemented in the Origin (version 7.0) software package to determine the binding stoichiometry (n) and the equilibrium dissociation constant (Kd) and other thermodynamic parameters (ΔG, ΔH, ΔS).

Data set [8] relates to T6, JAZP1.
T6 construct: made in house; host or cells: chemical peptide synthesis
The data set can be described thus: Isothermal titration calorimetry (iTC), JAZP1 only. The class given is binding, Arabidopsis thaliana. As to conditions: 150 μM ligand into JAZP1 (10 μM), only heat of dilution. The protocol:
as §3

Data set [9] concerns the target T4, COI1-JAZ9. Also noted: method as in PMID 19349968. The note with it: pull-down assay, times stronger ref 12; cited from earlier work.
Data set [10] has as its target T1, COI1. The note with it: read-out: Kd (COI1, iTC assay); previously reported using the iTC assay ref 18; cited from earlier work.
Data set [11] concerns the target COI1-JAZP1. Also noted: method as in PMID 20927106. As to conditions: previously obtained ref 19; cited from earlier work.

Where two headings read alike, the source gives them in different places.

T4 sequence (Q8W4J8 218-238, one chain of several): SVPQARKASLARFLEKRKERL
T3 sequence (Q9LMA8 200-220, stated change not applied, one chain of several): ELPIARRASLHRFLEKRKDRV

For the compound `CC/C=C\C[C@H]1C(=O)CC[C@@H]1CC(=O)O` (racemic) [racemic jasmonic acid, jasmonic acid], the “shift in the melting point of COI1” value in [1] (DSF) is recorded as “no shift”. Besides, in data set [2] (DSF, COI1 with JAZP1/9), the “effect of addition of JAZP1/9 on the shift in melting point” value is “did not affect the shift in melting point”.
For the compound `CC/C=C\C[C@@H]1C(=O)CC[C@@H]1CC(=O)N[C@H](C(=O)O)[C@@H](C)CC` [(3R, 7S)-JA-Ile, (3R, 7S)-jasmonoyl-L-isoleucine], in data set [3], the “-TΔS” value turned out to be 14.8 kcal/mol, the “n (binding stoichiometry)” value worked out at 0.641±0.0063, the ΔG was -9.5 kcal/mol and the ΔH was -24.3 kcal/mol. Further, in data set [4], the “(3R, 7R)-JA-Ile formed by isomerization under DSF conditions” value was 63.9% and the “(3R, 7S)-JA-Ile remaining under DSF conditions” value is given as 36.1%. In addition, in data set [5], the “(3R, 7S)-JA-Ile isomerized to (3R, 7R)-JA-Ile” value is 65%. In addition, the Kd in data set [6] was determined as 7.39 µM. Further, in [7], the dissociation constant Kd came to 11 µM. For the same compound, in data set [7] (iTC, GST-COI1), the “-TΔS” value is 13.3 kcal/mol, the ΔG was -6.8 kcal/mol and the ΔH was -20.0 kcal/mol. For the same compound, the “n (binding stoichiometry)” value in data set [7] (iTC, GST-COI1, N = 1 set manually due to low C condition) was determined as 1.00. Further, the “interaction between JAZP1-ligand” value in data set [8] was “no interaction”. Also, the Kd in data set [2] (read-out: Kd COI1-JAZ1) was determined as 17.7 µM.
In the case of `CC[C@H]1C=C(C(=O)N[C@H](C(=O)O)[C@@H](C)CC)[C@H]2CCC(=O)[C@H]2C1` [CFA-Ile, (3R, 7S)-coronafacyl L-Ile], the Kd stood at 14.1 µM in [1], 2.95 µM in data set [6] and 2.66 µM in [2] (read-out: Kd COI1-JAZ1). Besides, the “shift in the melting point of COI1” value in data set [1] (DSF) is on record as “significant shift”.
As for `CCC1C=C(C(=O)N[C@H](C(=O)O)C(C)C)C2CCC(=O)C2C1` (stereo partly drawn) [CFA-Val, (3R, 7S)-coronafacyl L-Val], the “shift in the melting point of COI1” value in [1] (DSF) was “significant shift”. Moreover, the Kd came to 28.1 µM in [1] (read-out: Kd COI1, DSF, 1 μM tag-free COI1, ΔTm dose-response curve fitting); 9.77 µM in data set [6] (DSF, 1 μM tag-free COI1 with 3 μM JAZP9); 6.63 µM in data set [2] (DSF, 1 μM tag-free COI1 with 3 μM JAZP1, read-out: Kd COI1-JAZ1).
As for `CC[C@H]1C=C(C(=O)N[C@@]2(C(=O)O)C[C@@H]2CC)[C@H]2CCC(=O)[C@H]2C1` [COR, coronatine], the Kd in data set [1] was 4.08 µM; in [10], 0.96 µM; in data set [6], 0.29 µM; in data set [11], about 0.11 µM; in data set [2] (read-out: Kd COI1-JAZ1) it was 0.6 µM. Also, the “shift in the melting point of COI1” value in [1] (DSF) is “shifted to a higher temperature”. Further, the “affinity for COI1-JAZ9 relative to (3R, 7S)-JA-Ile” value in data set [9] is listed as “approximately 100 times”.
Take `CC[C@H]1C=C(C(=O)N[C@@]2(C(=O)O)C[C@@H]2CC)[C@H]2CCC(=NOC)[C@H]2C1` [COR-MO]: the Kd in data set [1] was 2.65 µM; in [6] it was 2.67 µM; in data set [2] (read-out: Kd COI1-JAZ1) it was 2.31 µM. Besides, the “shift in the melting point of COI1” value in [1] (DSF) was “shifted to a higher temperature”.
As to `CCC=CCC1C(=O)CCC1CC(=O)NC1(C(=O)O)CC1CC` [JA-CMA, (3R, 7S)/(3R, 7R)-jasmonoyl CMA], in data set [1] (DSF), the “shift in the melting point of COI1” value is on record as “little or no shift”. Moreover, the Kd came out at 24.2 µM in data set [6] and 33.5 µM in data set [2].
On to `CC/C=C\C[C@@H]1C(=O)C=C[C@@H]1CCCCCCCC(=O)O` [cis-OPDA, (+)-cis-12-oxo-phytodienoic acid], for which the “shift in the melting point of COI1” value in data set [1] (DSF) is recorded as “no shift”.
